In patent US20150105252A1, “SUBSTITUTED PYRAZOLES AS HERBICIDES” (E I DU PONT DE NEMOURS AND COMPANY, priority 2013, published 2015):

Tests used:
[1] = test system: barnyardgrass; assay: Test A preemergence; assay type: in vivo, Echinochloa crus-galli; conditions: preemergence; for Barnyardgrass plant response rating (0 to 100 scale, 0 is no effect, 100 is complete control): 125 g ai/ha, visual injury approx. 10 days after treatment; for Barnyardgrass plant response rating: 500 g ai/ha, visual injury after approx. 10 days, 0 to 100 scale (0 no effect, 100 complete control)
How it was run: (§1)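 Visual injury ratings, 0 = no effect to 100 = complete control, taken about 10 days after treatment against untreated controls. Test chemicals, in a non-phytotoxic surfactant-containing solvent, were sprayed onto soil preemergence or onto one- to two-leaf plants (2–10 cm) postemergence, in loam–sand soil under greenhouse conditions.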

[2] = test system: crabgrass, large; assay: Test A preemergence; assay type: in vivo, Digitaria sanguinalis; conditions: preemergence; for Crabgrass, Large plant response rating (0 to 100 scale): 125 g ai/ha, visual injury approx. 10 days after treatment; for Crabgrass, Large plant response rating: 500 g ai/ha, visual injury after approx. 10 days, 0 to 100 scale (0 no effect, 100 complete control)
How it was run: as §1

[3] = test system: foxtail, giant; assay: Test A preemergence; assay type: in vivo, Setaria faberii; conditions: preemergence; for Foxtail, Giant plant response rating (0 to 100 scale): 125 g ai/ha, visual injury approx. 10 days after treatment; for Foxtail, Giant plant response rating: 500 g ai/ha, visual injury after approx. 10 days, 0 to 100 scale (0 no effect, 100 complete control)
How it was run: as §1

[4] = test system: morningglory; assay: Test A preemergence; assay type: in vivo, Ipomoea spp.; conditions: preemergence; for Morningglory plant response rating (0 to 100 scale): 125 g ai/ha, visual injury approx. 10 days after treatment; for Morningglory plant response rating: 500 g ai/ha, visual injury after approx. 10 days, 0 to 100 scale (0 no effect, 100 complete control)
How it was run: as §1

[5] = test system: pigweed; assay: Test A preemergence; assay type: in vivo, Amaranthus retroflexus; conditions: preemergence; for Pigweed plant response rating (0 to 100 scale): 125 g ai/ha, visual injury approx. 10 days after treatment; for Pigweed plant response rating: 500 g ai/ha, visual injury after approx. 10 days, 0 to 100 scale (0 no effect, 100 complete control)
How it was run: as §1

[6] = test system: velvetleaf; assay: Test A preemergence; assay type: in vivo, Abutilon theophrasti; conditions: preemergence; for Velvetleaf plant response rating (0 to 100 scale): 125 g ai/ha, visual injury approx. 10 days after treatment; for Velvetleaf plant response rating: 500 g ai/ha, visual injury after approx. 10 days, 0 to 100 scale (0 no effect, 100 complete control)
How it was run: as §1

[7] = test system: wheat; assay: Test A preemergence; assay type: in vivo, Triticum aestivum; conditions: preemergence; for Wheat plant response rating (0 to 100 scale): 125 g ai/ha, visual injury approx. 10 days after treatment; for Wheat plant response rating: 500 g ai/ha, visual injury after approx. 10 days, 0 to 100 scale (0 no effect, 100 complete control)
How it was run: as §1

[8] = test system: corn; assay: Test A preemergence; assay type: in vivo, Zea mays; conditions: preemergence; for Corn plant response rating (0 to 100 scale): 125 g ai/ha, visual injury approx. 10 days after treatment; for Corn plant response rating: 500 g ai/ha, visual injury after approx. 10 days, 0 to 100 scale (0 no effect, 100 complete control)
How it was run: as §1

[9] = test system: barnyardgrass; assay: Test A postemergence; assay type: in vivo, Echinochloa crus-galli
How it was run: as §1

[10] = test system: crabgrass, large; assay: Test A postemergence; assay type: in vivo, Digitaria sanguinalis
How it was run: as §1

[11] = test system: foxtail, giant; assay: Test A postemergence; assay type: in vivo, Setaria faberii
How it was run: as §1

[12] = test system: morningglory; assay: Test A postemergence; assay type: in vivo, Ipomoea spp.; conditions: Postemergence
How it was run: as §1

[13] = test system: pigweed; assay: Test A postemergence; assay type: in vivo, Amaranthus retroflexus; conditions: Postemergence
How it was run: as §1

[14] = test system: velvetleaf; assay: Test A postemergence; assay type: in vivo, Abutilon theophrasti; conditions: Postemergence
How it was run: as §1

[15] = test system: wheat; assay: Test A postemergence; assay type: in vivo, Triticum aestivum; conditions: Postemergence
How it was run: as §1

[16] = test system: corn; assay: Test A postemergence; assay type: in vivo, Zea mays
How it was run: as §1

[17] = test system: rice; assay: Test B flood; assay type: in vivo, Oryza sativa; conditions: 250 g ai/ha, visual rating on 0 to 100 scale (0 no effect, 100 complete control), 13 to 15 days
How it was run: (§2)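 Paddy-water application: seedlings at 2-leaf stage, flood depth 3 cm maintained for the test duration. Evaluation after 13–15 days in the greenhouse by eye relative to controls; 0–100 scale.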

[18] = test system: sedge, umbrella; assay: Test B flood; assay type: in vivo, Cyperus difformis; conditions: 250 g ai/ha, visual rating on 0 to 100 scale (0 no effect, 100 complete control), 13 to 15 days
How it was run: as §2

[19] = test system: ducksalad; assay: Test B flood; assay type: in vivo, Heteranthera limosa; conditions: 250 g ai/ha, visual rating on 0 to 100 scale (0 no effect, 100 complete control), 13 to 15 days
How it was run: as §2

[20] = test system: barnyardgrass; assay: Test B flood; assay type: in vivo, Echinochloa crus-galli; conditions: 250 g ai/ha, visual rating on 0 to 100 scale (0 no effect, 100 complete control), 13 to 15 days
How it was run: as §2

[21] = Postemergence, 500 g ai/ha, 0 to 100 scale (0 no effect, 100 complete control)
[22] = postemergence, 125 g ai/ha, about 10 days, visual rating on 0 to 100 scale (0 no effect, 100 complete control)
[23] = 500 g ai/ha, 0 to 100 scale (0 no effect, 100 complete control)
[24] = 125 g ai/ha, 0 to 100 scale, 0 no effect, 100 complete control

| Structure (SMILES) | Barnyardgrass plant response rating (0 to 100 scale, 0 is no effect, 100 is complete control) [1] | Barnyardgrass plant response rating [1] | Crabgrass, Large plant response rating (0 to 100 scale) [2] | Crabgrass, Large plant response rating [2] | Foxtail, Giant plant response rating (0 to 100 scale) [3] | Foxtail, Giant plant response rating [3] | Morningglory plant response rating (0 to 100 scale) [4] | Morningglory plant response rating [4] | Pigweed plant response rating (0 to 100 scale) [5] | Pigweed plant response rating [5] | Velvetleaf plant response rating (0 to 100 scale) [6] | Velvetleaf plant response rating [6] | Wheat plant response rating (0 to 100 scale) [7] | Wheat plant response rating [7] | Corn plant response rating (0 to 100 scale) [8] | Corn plant response rating [8] | Barnyardgrass plant response rating [9, 21] | Barnyardgrass plant response rating [9, 22] | Crabgrass, Large plant response rating [10, 21] | Crabgrass, Large plant response rating [10, 22] | other results |
| --- | --- | --- | --- | --- | --- | --- | --- | --- | --- | --- | --- | --- | --- | --- | --- | --- | --- | --- | --- | --- | --- |
| O=C(NCC(F)(F)F)c1cc(I)n(Cc2cccc(C(F)(F)F)c2)n1 [Compound 181] | 0 | 10 | 10 | 60 | 0 | 20 | 0 | 0 | 10 | 50 | 0 | 0 | 0 | 0 | 0 | 0 | 10 | 10 | 10 | 10 | Foxtail, Giant plant response rating [11, 21]: 10; Foxtail, Giant plant response rating [11, 22]: 0; Morningglory plant response rating [12, 23]: 80; Pigweed plant response rating [13, 23]: 100; Velvetleaf plant response rating [14, 23]: 20; Wheat plant response rating [15, 23]: 0; Corn plant response rating [16, 21]: 20; Corn plant response rating [16, 22]: 0; Plant response rating, Rice [17]: 20; Plant response rating, Sedge, Umbrella [18]: 40; Plant response rating, Ducksalad [19]: 0; Plant response rating, Barnyardgrass [20]: 0 |
| CCCNC(=O)c1cc(I)n(Cc2cccc(C(F)(F)F)c2)n1 [Compound 183] | 0 | 10 | 10 | 80 | 10 | 50 | 0 | 0 | 10 | 50 | 0 | 0 | 0 | 0 | 0 | 0 | 20 | 10 | 20 | 10 | Foxtail, Giant plant response rating [11, 21]: 20; Foxtail, Giant plant response rating [11, 22]: 10; Morningglory plant response rating [12, 24]: 10; Morningglory plant response rating [12, 23]: 90; Pigweed plant response rating [13, 24]: 90; Pigweed plant response rating [13, 23]: 80; Velvetleaf plant response rating [14, 24]: 10; Velvetleaf plant response rating [14, 23]: 40; Wheat plant response rating [15, 24]: 0; Wheat plant response rating [15, 23]: 0; Corn plant response rating [16, 21]: 10; Corn plant response rating [16, 22]: 0; Plant response rating, Rice [17]: 0; Plant response rating, Sedge, Umbrella [18]: 0; Plant response rating, Ducksalad [19]: 0; Plant response rating, Barnyardgrass [20]: 0 |
